Laboratory results from article PMC4405350, “From Broad-Spectrum Biocides to Quorum Sensing Disruptors and Mussel Repellents: Antifouling Profile of Alkyl Triphenylphosphonium Salts” (PLoS ONE, 2015).
Like-named read-outs stand apart in the source and are kept apart here.

Columns and labels:
[1] = test system: Cellulophaga lytica CECT 5014; test: Marine bacteria growth inhibition (broth microdilution, OD625); type: cell-based; conditions: Cellulophaga lytica, read-out: IC50 C. lytica
Method: (§1) All the biological assays were run by triplicate. […] For the active products, serial dilutions were performed to calculate the half-maximal inhibitory concentrations (IC50) or the minimal inhibitory concentrations (MIC). Unless otherwise stated, the test concentrations were 100, 50, 25, 10, 5, 2.5, 1, 0.5 and 0.1 μM. Dose-response curves were adjusted with GraphPad Prism 5 software using a four-parameter non-linear regression model.
(§2) Growth inhibition was assessed in Marine Broth (Conda) according to CLSI guidelines for broth microdilution susceptibility testing. The incubation time was 24 h and the incubation temperature was 30 °C.

Cobetia marina CECT 4278 = test: as above; type: cell-based; conditions: Cobetia marina, read-out: IC50 C. marina
Method: as §1, §2

[2] = test system: Pseudoalteromonas atlantica CECT 579; test: as above; type: cell-based; conditions: Pseudoalteromonas atlantica, read-out: IC50 P. atlantica
Method: as §1, §2

[3] = test system: Shewanella algae CECT 5021; test: as above; type: cell-based; conditions: Shewanella algae, read-out: IC50 S. algae
Method: as §1, §2

[4] = test system: Vibrio alginolyticus CECT 521; test: as above; type: cell-based; conditions: Vibrio alginolyticus, read-out: IC50 V. alginolyticus
Method: as §1, §2

[5] = test system: Vibrio anguillarum CECT 4347; test: as above; type: cell-based; conditions: Vibrio anguillarum, read-out: IC50 V. anguillarum
Method: as §1, §2

Alternaria sp. = test: Marine-derived fungi growth inhibition (OD405); type: cell-based; conditions: Alternaria, 120 h, read-out: IC50 Alternaria sp.
Method: as §1
(§3) Three strains of marine-derived fungi were kindly provided by Dr. Á. Trigos (University of Veracruz, Mexico). The strains were isolated from reef organisms collected from the Veracruz Reef System and identified as Aspergillus sp., Fusarium sp. and Alternaria sp..
(§4) Fungal strains were cultured in Potato-Dextrose Agar (PDA) supplemented with filtered seawater (FSW) (50% v/v) at 26 °C for 5 days prior to experiments. […] Briefly, fungal inocula were prepared by addition of 5 ml of sterile saline solution to the cultures. Gently swabbing released conidia. […] The plates were incubated for 5 days at 26 °C. The calculation of the half-maximal inhibitory concentrations (IC50) was performed using OD405 as endpoint.

Aspergillus sp. = test: Marine-derived fungi growth inhibition (OD405); type: cell-based; conditions: Aspergillus, 120 h, read-out: IC50 Aspergillus sp.
Method: as §1, §3, §4

[6] = test system: Gayralia oxysperma spores; test: Macroalgal spore germination inhibition; type: cell-based; conditions: 6 days, 19±1 °C
Method: as §1
To evaluate the effect of the phosphonium salts on the germination of macroalgal spores, Gayralia oxysperma (Kützing) K.L.Vinogradova was selected as model organism. G. oxysperma (Ulotrichales, Chlorophyta) is a cosmopolitan member of the Ulvophyceae. Unlike Ulva species, which produce biflagellate male and female gametes, as well as quadriflagellate spores, G. oxysperma only produces biflagellate spores. This is an advantage as bioassays can be conducted straightforwardly without the need to distinguish between gamete-producing and zoospore-producing plants. […] Fresh fertile fragments were selected and placed in Petri dishes. Spores were then released in Von Stosch Solution (VSS) by the osmotic method. Bioassays were conducted in flat-bottom 96-well plates as described by Chambers and co-workers, with slight modifications. Each well was filled with 50 μl of the appropriate dilution of the products in VSS to which 50 μl of spore inoculum (ca. 2 x 10^5 spores ml^-1) were added. Plates were incubated at 19±1 °C for 6 days. After the incubation time, the bottom of each well was examined for the presence of germinated spores with an inverted microscope. A spore was considered as germinated when the germ tube was visible. The MIC was recorded as the lowest concentration inhibiting spore germination.

Artemia salina nauplii = test: in vivo; conditions: instar I nauplii, 24 h, 28 °C
Method: as §1
Artemia salina cysts (INVE Aquaculture, Ghent, Belgium) were hatched in brackish water (30 ‰ salinity) at 28 °C with aeration and under constant light. Newly hatched instar I nauplii were harvested for bioassays. Tests were conducted in 96-well plates (15±5 nauplii per well, test volume = 200 μl). The number of dead and alive individuals was recorded after 24 h of incubation at 28 °C and 24-hour photoperiod.

C. violaceum CVO26 = C. violaceum CVO26 growth inhibition (OD625); type: cell-based; conditions: Chromobacterium violaceum, CVO26, 18 h, read-out: IC50 (Growth inhibition)
Method: The reporter strain C. violaceum CVO26 (CECT 5999) was used to screen the ability of the products to interfere with violacein production, a QS-regulated phenotype. C. violaceum CVO26 is a mini-Tn5 mutant that depends on an exogenous source of autoinducer (AI) (N-hexanoyl homoserine lactone, HHL) for violacein production. C. violaceum CVO26 was cultured in LB broth (Sigma-Aldrich) supplemented with 25 μg ml^-1 kanamycin. Inocula were prepared by dilution (1:100) of an overnight culture of the reporter strain [49]. One hundred microliters of inoculum with HHL (Sigma-Aldrich, 6 μM) or without the AI were added to 96-well plates containing 100 μl of the appropriate dilutions of the test products in LB. Thus, two sets of plates were prepared. One set of plates (without HHL) was used to evaluate the effect of the products on bacterial growth, whereas the other set of plates (with HHL) was used to evaluate their effect on violacein production. Both sets of plates were incubated at 30 °C with agitation (150 rpm) for 18 h.
Growth inhibition was quantified in the first batch of plates by re-suspending bacterial pellets and measuring the OD625. From the second batch of plates violacein was extracted and quantified. Briefly, the plates were dried overnight (60 °C) and violacein was re-solubilized by the addition of 200 μl of DMSO. The plates were shaken for 3 h and then the OD590 was determined.
Indeed, the inhibitions observed in violacein production for long alkyl chains (10–18, 20) were clearly correlated to the biocidal effect exerted by these compounds, with ‘therapeutic ratios’ (IC50 for growth inhibition/IC50 for violacein inhibition) around 1, in general (Table 2). Note that, as the length of the hydrocarbon chain becomes shorter, this ratio increased (8–9). […] To evaluate these compounds in further detail, […] stock solutions were prepared […] to avoid the use of high concentrations of DMSO in the bioassays. […] Serial two-fold dilutions (500–3.9 μM) were assayed. Consequently, the highest amount of DMSO used in the assay was 0.25% (v/v). […] Growth inhibitory effects are only observed at 500 μM, particularly for compound 7 (Fig 6D).

[7] = CECT5014, growth inhibition, 24 h, 30 °C, three replicates
[8] = CECT4278, growth inhibition, 24 h, 30 °C, three replicates
[9] = CECT579, growth inhibition, 24 h, 30 °C, three replicates
[10] = CECT5021, growth inhibition, 24 h, 30 °C, three replicates
[11] = CECT521, growth inhibition, 24 h, 30 °C, three replicates
[12] = CECT4347, growth inhibition, 24 h, 30 °C, three replicates
[13] = growth inhibition, 5 days, 26 °C

Row | SMILES | IC50 [1, 7] [µM] | IC50 (Cobetia marina CECT 4278; [8]) [µM] | IC50 [2, 9] [µM] | IC50 [3, 10] [µM] | IC50 [4, 11] [µM] | IC50 [5, 12] [µM] | IC50 (Alternaria sp.; [13]) [µM] | IC50 (Aspergillus sp.; [13]) [µM] | MIC G. oxysperma (lowest concentration inhibiting spore germination) [6] [µM] | IC50 A. salina (LC50) (Artemia salina nauplii) [µM] | IC50 (C. violaceum CVO26) [µM] | IC50 ([1]; CECT5014, 24 h) [µM] | IC50 (Cobetia marina CECT 4278; CECT4278, 24 h) [µM] | IC50 ([2]; CECT579, 24 h) [µM] | IC50 ([3]; CECT5021, 24 h) [µM] | IC50 ([4]; CECT521, 24 h) [µM] | IC50 ([5]; CECT4347, 24 h) [µM] | IC50 (Alternaria sp.) [µM] | IC50 (Aspergillus sp.) [µM]
1 | CCCCC[P+](c1ccccc1)(c1ccccc1)c1ccccc1 [Compound 7] | > 100 | > 100 | > 100 | > 100 | > 100 | > 100 | > 100 | > 100 | >100 | >100 | > 500 |  |  |  |  |  |  |  | 
2 | O=S(=O)([O-])CCCC[P+](c1ccccc1)(c1ccccc1)c1ccccc1 [Compound 6] | > 100 | > 100 | > 100 | > 100 | > 100 | > 100 | > 100 | > 100 | >100 | >100 | > 100 |  |  |  |  |  |  |  | 
3 | CCCCCCCCCCCCCC[P+](c1ccccc1)(c1ccccc1)c1ccccc1 [Compound 14] | 2 | 5.3 | 2.3 | 1.2 | 12.7 | 1.6 | 0.7 | 5.3 | 50 | 1.8 | 2.3 |  |  |  |  |  |  |  | 
4 | CCCCCCC[P+](c1ccccc1)(c1ccccc1)c1ccccc1 [Compound 8, heptyl triphenylphosphonium bromide] | 20 | > 100 | 28.6 | > 100 | > 100 | > 100 | 12 | 12.4 | 100 | 20.4 | 52.5 |  |  |  |  |  |  |  | 
5 | CCCCCCCCCCCC[P+](c1ccccc1)(c1ccccc1)c1ccccc1 [Compound 12] |  |  |  |  |  |  |  |  | 50 | 2.4 | 10.3 | 1.7 | 5.1 | 1.1 | 3 | 26.3 | 27.5 | 1.2 | 7.5
6 | CCCCCCCCCCCCC[P+](c1ccccc1)(c1ccccc1)c1ccccc1 [Compound 13] | 1.7 | 5 | 1.2 | 3.6 | 11.3 | 5.7 | 1.6 | 4.8 | 50 | 0.9 | 3.2 |  |  |  |  |  |  |  | 
7 | CCCCCCCCC[P+](c1ccccc1)(c1ccccc1)c1ccccc1 [Compound 9] | 2.6 | 21 | 6.6 | 8.6 | 69.7 | 87 | 7.4 | 10 | 50 | 2.0 | 16 |  |  |  |  |  |  |  | 
8 | CCCCCCCCCCCCCCCCCC[P+](c1ccccc1)(c1ccccc1)c1ccccc1 [Compound 17] | 11.3 | > 100 | 46.1 | 72.5 | > 100 | 31.8 | 1.3 | 10.2 | >100 | <0.5 | 7 |  |  |  |  |  |  |  | 
9 | O=C(O)CCCCCCCCCC[P+](c1ccccc1)(c1ccccc1)c1ccccc1 [Compound 19] | > 100 | > 100 | > 100 | > 100 | > 100 | > 100 | > 100 | > 100 | >100 |  | > 100 |  |  |  |  |  |  |  | 
